Laboratory results taken from publication PMC6856039 (Investigational New Drugs, 2019).
Where two headings read alike, the source gives them in different places. Marks after values point to notes of the source that are not given here.

What was measured:
[1] = tested on: T790M-positive NSCLC patients; type: in vivo, human; details: for median PFS / Best overall response: Not evaluable / Best overall response: Partial response / Best overall response: Progression disease / Best overall response: Stable disease / Disease control rate / Objective response rate: T790M-positive
Text: To assess the EGFR T790M mutation tumor status, mandatorily collected plasma from patients was processed, and isolated circulating cell-free DNA (cfDNA) was submitted for laboratory testing (Fluorescence Resonance Energy Transfer-based Preferential Formation Assay [F-PHFA] method) by central review. In some patients, collected tumor biopsies were submitted for EGFR genotyping (Therascreen® EGFR RGQ PCR kit [Qiagen, Venlo, Netherlands]).
Antitumor efficacy was based on objective tumor assessments according to the Response Evaluation Criteria in Solid Tumors criteria (version 1.1, 2009). Computed tomography scans were performed at baseline, every 6 weeks after starting administration, and at the time of discontinuation. The ORR, DCR, and PFS at each phase were assessed according to dose level and regimen. ORR was defined as the proportion of patients in which the best overall response was determined to be CR or PR and was calculated in patients with measurable lesions. DCR was defined as the proportion of patients in which the best overall response was determined to be CR, PR, or stable disease. PFS was defined as the median time from enrollment to PD or death from any cause.

[2] = Experimental: PK parameters were evaluated on Day 1 and Day 15.
The planned sample size was 300 patients maximum, including 54 patients in the dose escalation phase, seven patients at each level of the first stage of the expansion phase, 20 patients at each level in the second stage of the expansion phase, and in the extension phase, 100, 40, 20, and 10 patients in Cohorts A, B, C, and D, respectively. The main analysis sets in each study phase are defined in Supplementary Table 1 (Online Resource 3). Safety and efficacy data are summarized using descriptive statistics. PK parameters were calculated according to the non-compartmental method. ORR, DCR, and median PFS were calculated along with 95% CIs. The statistical software used to perform statistical analyses was SAS version 9.2 (SAS Inc., Cary, NC, USA, RRID: SCR_008567). For the PK analysis, Phoenix® WinNonlin® Ver. 6.3 and 6.4 (Certara, Princeton, NJ, USA) was used.

[3] = BID 8 mg/day, cycle 1, day 15, n = 9
[4] = BID 12 mg/day, cycle 1, day 15, n = 4
[5] = QD 4 mg/day, cycle 1, day 15, n = 3
[6] = QD 8 mg/day, cycle 1, day 15, n = 9
[7] = QD 10 mg/day, cycle 1, day 15, n = 7
[8] = QD 12 mg/day, cycle 1, day 15, n = 2
[9] = QD 16 mg/day, cycle 1, day 15, n = 1

C=CC(=O)N[C@H]1CCc2c(-c3cnc4ccccc4c3)c3c(N)ncnc3n2C1 [TAS-121]
objective response rate (ORR) ([1]; T790M-positive patients with measurable lesions, n = 86, regardless of the dosage): 28% | objective response rate (ORR) ([1]; T790M-positive patients, 8 mg/day BID): 39% | median PFS ([1]; 4 mg/day QD, 23 patients/17 events): 165 days | Best overall response: Not evaluable ([1]; 4 mg/day QD, N = 15): 1 (6.7) n (%) | Best overall response: Partial response ([1]; 4 mg/day QD, N = 15): 4 (26.7) n (%) | Best overall response: Progression disease ([1]; 4 mg/day QD, N = 15): 7 (46.7) n (%) | Best overall response: Stable disease ([1]; 4 mg/day QD, N = 15): 3 (20.0) n (%) | Disease control rate ([1]; 4 mg/day QD, N = 15): 7 (46.7) n (%) | Objective response rate ([1]; 4 mg/day QD, N = 15): 4 (26.7) n (%) | median PFS ([1]; 8 mg/day BID, 36 patients/21 events): 253 days | Best overall response: Not evaluable ([1]; 8 mg/day BID, N = 33): 1 (3.0) n (%) | Best overall response: Partial response ([1]; 8 mg/day BID, N = 33): 13 (39.4) n (%) | Best overall response: Progression disease ([1]; 8 mg/day BID, N = 33): 8 (24.2) n (%) | Best overall response: Stable disease ([1]; 8 mg/day BID, N = 33): 11 (33.3) n (%) | Disease control rate ([1]; 8 mg/day BID, N = 33): 24 (72.7) n (%) | Objective response rate ([1]; 8 mg/day BID, N = 33): 13 (39.4) n (%) | median PFS ([1]; 8 mg/day QD, 33 patients/25 events): 125 days | Best overall response: Not evaluable ([1]; 8 mg/day QD, N = 28): 0 (0.0) n (%) | Best overall response: Partial response ([1]; 8 mg/day QD, N = 28): 6 (21.4) n (%) | Best overall response: Progression disease ([1]; 8 mg/day QD, N = 28): 11 (39.3) n (%) | Best overall response: Stable disease ([1]; 8 mg/day QD, N = 28): 11 (39.3) n (%) | Disease control rate ([1]; 8 mg/day QD, N = 28): 17 (60.7) n (%) | Objective response rate ([1]; 8 mg/day QD, N = 28): 6 (21.4) n (%) | Best overall response: Not evaluable ([1]; 10 mg/day QD, N = 7): 0 (0.0) n (%) | Best overall response: Partial response ([1]; 10 mg/day QD, N = 7): 1 (14.3) n (%) | Best overall response: Progression disease ([1]; 10 mg/day QD, N = 7): 3 (42.9) n (%) | Best overall response: Stable disease ([1]; 10 mg/day QD, N = 7): 3 (42.9) n (%) | Disease control rate ([1]; 10 mg/day QD, N = 7): 4 (57.1) n (%) | Objective response rate ([1]; 10 mg/day QD, N = 7): 1 (14.3) n (%) | median PFS ([1]; 10 mg/day QD, seven patients/three events): 401 days | Best overall response: Not evaluable ([1]; 12 mg/day BID, N = 3): 1 (33.3) n (%) | Best overall response: Partial response ([1]; 12 mg/day BID, N = 3): 0 (0.0) n (%) | Best overall response: Progression disease ([1]; 12 mg/day BID, N = 3): 1 (33.3) n (%) | Best overall response: Stable disease ([1]; 12 mg/day BID, N = 3): 1 (33.3) n (%) | Disease control rate ([1]; 12 mg/day BID, N = 3): 1 (33.3) n (%) | Objective response rate ([1]; 12 mg/day BID, N = 3): 0 (0.0) n (%) | Best overall response: Not evaluable ([1]; 12 mg/day QD, N = 1): 0 (0.0) n (%) | Best overall response: Partial response ([1]; 12 mg/day QD, N = 1): 0 (0.0) n (%) | Best overall response: Progression disease ([1]; 12 mg/day QD, N = 1): 1 (100.0) n (%) | Best overall response: Stable disease ([1]; 12 mg/day QD, N = 1): 0 (0.0) n (%) | Disease control rate ([1]; 12 mg/day QD, N = 1): 0 (0.0) n (%) | Objective response rate ([1]; 12 mg/day QD, N = 1): 0 (0.0) n (%) | Best overall response: Not evaluable ([1]; Total, N = 87): 3 (3.4) n (%) | Best overall response: Partial response ([1]; Total, N = 87): 24 (27.6) n (%) | Best overall response: Progression disease ([1]; Total, N = 87): 31 (35.6) n (%) | Best overall response: Stable disease ([1]; Total, N = 87): 29 (33.3) n (%) | Disease control rate ([1]; Total, N = 87): 53 (60.9) n (%) | Objective response rate ([1]; Total, N = 87): 24 (27.6) n (%) | AUC0-12h, mean (standard deviation) [2, 3]: 1520 (520) ng•h/mL | Cmax, mean (standard deviation) [2, 3]: 290 (104) ng/mL | T1/2, mean (standard deviation) [2, 3]: 5.11 (1.48) h | Tmax, median (minimum–maximum) [2, 3]: 1.00 (0.50–1.00) h | AUC0-12h, mean (standard deviation) [2, 4]: 5860 (1460) ng•h/mL | Cmax, mean (standard deviation) [2, 4]: 772 (201) ng/mL | T1/2, mean (standard deviation) [2, 4]: 8.84 (3.31) h | Tmax, median (minimum–maximum) [2, 4]: 2.00 (1.00–3.00) h | AUC0-24h, mean (standard deviation) [2, 5]: 2670 (1110) ng•h/mL | Cmax, mean (standard deviation) [2, 5]: 304 (13) ng/mL | T1/2, mean (standard deviation) [2, 5]: 8.83 (2.88) h | Tmax, median (minimum–maximum) [2, 5]: 1.00 (1.00–1.00) h | AUC0-24h, mean (standard deviation) [2, 6]: 4860 (2520) ng•h/mL | Cmax, mean (standard deviation) [2, 6]: 569 (312) ng/mL | T1/2, mean (standard deviation) [2, 6]: 8.60 (2.49) h | Tmax, median (minimum–maximum) [2, 6]: 1.00 (0.50–2.00) h | AUC0-24h, mean (standard deviation) [2, 7]: 8040 (4190) ng•h/mL | Cmax, mean (standard deviation) [2, 7]: 900 (376) ng/mL | T1/2, mean (standard deviation) [2, 7]: 8.61 (1.73) h | Tmax, median (minimum–maximum) [2, 7]: 2.00 (0.75–4.00) h | T1/2 ([2]; QD 12 mg/day, cycle 1, day 15, based on one patient): 8.12 (NA)^b h | AUC0-24h, mean [2, 8]: 9500 (NA) ng•h/mL | Cmax, mean [2, 8]: 1180 (NA) ng/mL | Tmax, median (minimum–maximum) [2, 8]: 1.12 (1.00–1.23) h | AUC0-24h [2, 9]: 5870 (NA) ng•h/mL | Cmax [2, 9]: 825 (NA) ng/mL | T1/2 [2, 9]: 6.44 (NA) h | Tmax [2, 9]: 2.00 (NA) h
